The results in this text go back to ChEMBL document CHEMBL1149230, “Long chain amines and long chain ammonium salts as novel inhibitors of dynamin GTPase activity” (Bioorg Med Chem Lett, 2004).

For assay [1], the species on record is Ovis aries. Kind of assay: Compound was tested for its ability to inhibit Dynamin-1 GTPase activity of sheep brain; Increased activity. The format is tissue-based.
Assay [2] is filed under the species Ovis aries. Put plainly: Concentration required against Dynamin-1 GTPase activity of sheep brain at 3 uM. Format: tissue-based.
The species entered for assay [3] is Ovis aries. Put plainly: Compound was tested for its ability to inhibit Dynamin-1 GTPase activity of sheep brain at 30 uM; NE=No effect.

Active and inactive are the calls of the source. The rule behind the calls is not given here.

A word on the inhibition: it is how much of the control response was suppressed. Turning to `CCCC/C=C\C/C=C\C/C=C\C/C=C\CCCC(=O)OCC(O)CO` (stereo not drawn), the Concentration in assay [1] stood at 300 µM. Further, the inhibition in assay [2] worked out at 70%. Moreover, in assay [3], the result was inactive.
